# Values quoted from earlier work, collected in patent US20010027177A1, “Pharmaceutical composition containing a small or medium size peptide” (priority 2000, published 2001).
# Experiments:
# [1] = tested on: nasal ciliar motility
# [2] = solutions free from preservative; polystyrene, polypropylene and glass tubes; 24 hours at room temperature
# [3] = adsorption to glass bottles and plastic tubing used in giving sets
compound,measurement,setting,value
benzalkonium chloride,effect on nasal ciliar motility,[1],irreversible suppression of the nasal ciliar motility
"NC(=O)CC[C@@H]1NC(=O)[C@H](Cc2ccccc2)NC(=O)[C@H](Cc2ccc(O)cc2)NC(=O)CCSSC[C@@H](C(=O)N2CCC[C@H]2C(=O)N[C@H](CCCN=C(N)N)C(=O)NCC(N)=O)NC(=O)[C@H](CC(N)=O)NC1=O [desmopressin, 1-deamino-8-D-arginin-vasopressin]",loss of active principle because of adsorption by the walls,[2],lose about the half of active principle
insulin: peptide drug cited for adsorption to glass bottles and plastic tubing,losses of activity/potency because of adsorption,[3],≤ 78.8%
